# In article PMC5218480 (PLoS ONE, 2017):
# Tested on: MV-4-11 cells
# Experiment: Gene expression microarray analysis (Affymetrix PrimeView) and GSEA
# Format: cell-based, human
# Parameters: RFU PODN (11730768_x_at) / Fold change /veh PODN (11730768_x_at) / RFU LINC00158 (11744669_a_at) / Fold change /veh LINC00158 (11744669_a_at) / RFU DUSP10 (11751237_a_at) / Fold change /veh DUSP10 (11751237_a_at) / RFU ID3 (11757404_x_at) / Fold change /veh ID3 (11757404_x_at) / RFU PLEKHG5 (11737974_s_at) / Fold change /veh PLEKHG5 (11737974_s_at) / RFU LRRC4B (11730491_at) / Fold change /veh LRRC4B (11730491_at) / RFU GIMAP4 (11747438_a_at) / Fold change /veh GIMAP4 (11747438_a_at) / RFU KRT8 (11758183_x_at) / Fold change /veh KRT8 (11758183_x_at) / RFU CNN1 (11734310_a_at) / Fold change /veh CNN1 (11734310_a_at) / RFU VPS37D (11726825_at) / Fold change /veh VPS37D (11726825_at) / RFU C10orf10 (11716522_x_at) / Fold change /veh C10orf10 (11716522_x_at) / RFU KIR2DL2 /// KIR2DL4 /// KIR2DL5A /// KIR2DL5B /// KIR2DS1 /// KIR2DS2 /// KIR2DS3 /// KIR2DS4 /// KIR3DL3 /// KIR3DL3 /// KIR3DS1 (11738374_at) / Fold change /veh KIR2DL2 /// KIR2DL4 /// KIR2DL5A /// KIR2DL5B /// KIR2DS1 /// KIR2DS2 /// KIR2DS3 /// KIR2DS4 /// KIR3DL3 /// KIR3DL3 /// KIR3DS1 (11738374_at) / RFU C1QL1 (11718748_at) / Fold change /veh C1QL1 (11718748_at) / RFU TMPRSS4 (11747572_a_at) / Fold change /veh TMPRSS4 (11747572_a_at) / RFU HAMP (11756126_x_at) / Fold change /veh HAMP (11756126_x_at) / RFU RNFT2 (11725882_a_at) / Fold change /veh RNFT2 (11725882_a_at) / RFU NR4A2 (11747474_a_at) / Fold change /veh NR4A2 (11747474_a_at) / RFU ABCC12 (11746883_a_at) / Fold change /veh ABCC12 (11746883_a_at) / RFU TMEM136 (11760407_x_at) / Fold change /veh TMEM136 (11760407_x_at) / RFU CLDN22 /// WWC2 (11732394_at) / Fold change /veh CLDN22 /// WWC2 (11732394_at) / RFU HLA-DPB1 (11760878_x_at) / Fold change /veh HLA-DPB1 (11760878_x_at) / RFU SPINT1 (11716480_a_at) / Fold change /veh SPINT1 (11716480_a_at) / RFU GAP43 (11754022_s_at) / Fold change /veh GAP43 (11754022_s_at) / RFU A4GNT (11735810_at) / Fold change /veh A4GNT (11735810_at) / RFU PRB3 (11715151_x_at) / Fold change /veh PRB3 (11715151_x_at) / RFU TUBB4B (11761932_at) / Fold change /veh TUBB4B (11761932_at) / RFU CAPN14 (11732068_a_at) / Fold change /veh CAPN14 (11732068_a_at) / RFU TMCC2 (11721928_a_at) / Fold change /veh TMCC2 (11721928_a_at) / RFU IRGQ (11745062_a_at) / Fold change /veh IRGQ (11745062_a_at) / RFU FAM174B (11720279_a_at) / Fold change /veh FAM174B (11720279_a_at) / RFU TMPRSS4 (11748680_a_at) / Fold change /veh TMPRSS4 (11748680_a_at) / RFU FAM212B (11763350_a_at) / Fold change /veh FAM212B (11763350_a_at) / RFU PLEKHG5 (11743358_a_at) / Fold change /veh PLEKHG5 (11743358_a_at) / RFU ZSCAN30 (11745921_a_at) / Fold change /veh ZSCAN30 (11745921_a_at) / RFU CMKLR1 (11741424_a_at) / Fold change /veh CMKLR1 (11741424_a_at) / RFU LOC101060620 /// MAPK8IP1 (11723275_at) / Fold change /veh LOC101060620 /// MAPK8IP1 (11723275_at) / RFU SPTSSB (11747773_x_at) / Fold change /veh SPTSSB (11747773_x_at) / RFU PRSS12 (11739890_at) / Fold change /veh PRSS12 (11739890_at) / RFU BIN1 (11741810_x_at) / Fold change /veh BIN1 (11741810_x_at) / RFU WNT11 (11732464_a_at) / Fold change /veh WNT11 (11732464_a_at) / RFU C10orf10 (11716521_a_at) / Fold change /veh C10orf10 (11716521_a_at) / RFU C5orf56 (11738089_at) / Fold change /veh C5orf56 (11738089_at) / RFU CYB561 (11721691_x_at) / Fold change /veh CYB561 (11721691_x_at) / RFU ANKRD19P (11752326_a_at) / Fold change /veh ANKRD19P (11752326_a_at) / RFU OR2T12 /// OR2T33 /// OR2T8 (11738714_s_at) / Fold change /veh OR2T12 /// OR2T33 /// OR2T8 (11738714_s_at) / RFU VCAN (11748164_a_at) / Fold change /veh VCAN (11748164_a_at) / RFU JSRP1 (11732532_at) / Fold change /veh JSRP1 (11732532_at) / RFU KRTAP10-11 (11738290_x_at) / Fold change /veh KRTAP10-11 (11738290_x_at) / RFU MYO3A (11730013_a_at) / Fold change /veh MYO3A (11730013_a_at) / RFU EBF3 (11725865_a_at) / Fold change /veh EBF3 (11725865_a_at) / RFU CAMK2N1 (11719241_x_at) / Fold change /veh CAMK2N1 (11719241_x_at) / RFU C5orf56 (11738088_a_at) / Fold change /veh C5orf56 (11738088_a_at) / RFU OLFML3 (11715873_a_at) / Fold change /veh OLFML3 (11715873_a_at) / RFU LOC100653217 /// NTM (11731650_a_at) / Fold change /veh LOC100653217 /// NTM (11731650_a_at) / RFU MAPK11 (11762145_a_at) / Fold change /veh MAPK11 (11762145_a_at) / RFU FIZ1 (11724087_x_at) / Fold change /veh FIZ1 (11724087_x_at) / RFU OASL (11726364_x_at) / Fold change /veh OASL (11726364_x_at) / RFU SOX15 (11748057_x_at) / Fold change /veh SOX15 (11748057_x_at) / RFU CD79A (11719716_a_at) / Fold change /veh CD79A (11719716_a_at) / RFU HIST1H1D (11736915_at) / Fold change /veh HIST1H1D (11736915_at) / RFU CASKIN2 (11723855_a_at) / Fold change /veh CASKIN2 (11723855_a_at) / RFU LOC730098 (11760151_x_at) / Fold change /veh LOC730098 (11760151_x_at) / RFU OR4N2 (11742367_at) / Fold change /veh OR4N2 (11742367_at) / RFU PRRT2 (11749266_a_at) / Fold change /veh PRRT2 (11749266_a_at) / RFU SNX32 (11753110_a_at) / Fold change /veh SNX32 (11753110_a_at) / RFU CDHR5 (11726645_a_at) / Fold change /veh CDHR5 (11726645_a_at) / RFU RCAN1 (11760418_a_at) / Fold change /veh RCAN1 (11760418_a_at) / RFU FAM167A (11723789_a_at) / Fold change /veh FAM167A (11723789_a_at) / RFU FAM26E (11764081_at) / Fold change /veh FAM26E (11764081_at) / RFU ISYNA1 (11749810_s_at) / Fold change /veh ISYNA1 (11749810_s_at) / RFU ACY1 (11761880_at) / Fold change /veh ACY1 (11761880_at) / RFU 11764098_at / Fold change /veh 11764098_at / RFU SAMD14 (11745864_x_at) / Fold change /veh SAMD14 (11745864_x_at) / RFU NPB (11741838_a_at) / Fold change /veh NPB (11741838_a_at) / RFU TMPRSS6 (11731388_a_at) / Fold change /veh TMPRSS6 (11731388_a_at) / RFU KRTAP10-2 (11738614_at) / Fold change /veh KRTAP10-2 (11738614_at) / RFU ARHGAP8 /// PRR5-ARHGAP8 (11727945_x_at) / Fold change /veh ARHGAP8 /// PRR5-ARHGAP8 (11727945_x_at) / RFU KRTAP5-7 /// NADSYN1 (11734609_at) / Fold change /veh KRTAP5-7 /// NADSYN1 (11734609_at) / RFU RASL12 (11751679_a_at) / Fold change /veh RASL12 (11751679_a_at) / RFU CDKN2B (11736163_a_at) / Fold change /veh CDKN2B (11736163_a_at) / RFU PRF1 (11729649_at) / Fold change /veh PRF1 (11729649_at) / RFU, ZNF638 /// ZNF638-IT1 / Fold change vs veh, ZNF638 /// ZNF638-IT1 / RFU, PANK3 / Fold change vs veh, PANK3 / RFU, SH3YL1 / Fold change vs veh, SH3YL1 / RFU, ZEB2 / Fold change vs veh, ZEB2 / RFU, NRIP1 / Fold change vs veh, NRIP1 / RFU, PTTG1IP / Fold change vs veh, PTTG1IP / RFU, CAPN2 / Fold change vs veh, CAPN2 / RFU, MED14 / Fold change vs veh, MED14 / RFU, SNORA58 / Fold change vs veh, SNORA58 / RFU, C1orf63 / Fold change vs veh, C1orf63 / RFU, LRRFIP1 / Fold change vs veh, LRRFIP1 / RFU, NDUFAF7 / Fold change vs veh, NDUFAF7 / RFU, SLC12A2 / Fold change vs veh, SLC12A2 / RFU, IBTK / Fold change vs veh, IBTK / RFU, ESF1 / Fold change vs veh, ESF1 / Fold change vs veh, TMEM50B / RFU, TAOK1 / Fold change vs veh, TAOK1 / RFU, ACBD3 / Fold change vs veh, ACBD3 / RFU, TMA16 / Fold change vs veh, TMA16 / RFU, RWDD3 / Fold change vs veh, RWDD3 / RFU, BCAT1 / Fold change vs veh, BCAT1 / RFU, EDEM3 / Fold change vs veh, EDEM3 / RFU, TMEM33 / Fold change vs veh, TMEM33 / RFU, WDR75 / Fold change vs veh, WDR75 / RFU, AHCTF1 / Fold change vs veh, AHCTF1 / RFU, TFRC / Fold change vs veh, TFRC / RFU, ZDHHC17 / Fold change vs veh, ZDHHC17 / RFU, NOM1 / Fold change vs veh, NOM1 / RFU, ARL8B / Fold change vs veh, ARL8B / RFU, ZBTB11 / Fold change vs veh, ZBTB11 / RFU, TAMM41 / Fold change vs veh, TAMM41 / RFU, KIAA1704 /// LOC100996395 / Fold change vs veh, KIAA1704 /// LOC100996395 / RFU, ING1 / Fold change vs veh, ING1 / RFU, TRMT61B / Fold change vs veh, TRMT61B / RFU, FUBP3 / Fold change vs veh, FUBP3 / RFU, TP53 / Fold change vs veh, TP53 / RFU, TNKS2 / Fold change vs veh, TNKS2 / RFU, ZFP14 / Fold change vs veh, ZFP14 / RFU, ACTR2 / Fold change vs veh, ACTR2 / RFU, PPP3R1 / Fold change vs veh, PPP3R1 / RFU, PIK3R1 / Fold change vs veh, PIK3R1 / RFU, HNRNPA1 / Fold change vs veh, HNRNPA1 / RFU, RNF170 / Fold change vs veh, RNF170 / RFU, ZNF28 / Fold change vs veh, ZNF28 / RFU, RNGTT / Fold change vs veh, RNGTT / RFU, OGT / Fold change vs veh, OGT / RFU, BRD1 / Fold change vs veh, BRD1 / RFU, MARS / Fold change vs veh, MARS / RFU, ZNF655 / Fold change vs veh, ZNF655 / RFU, FAHD1 / Fold change vs veh, FAHD1 / RFU, BDP1 / Fold change vs veh, BDP1 / RFU, LRRCC1 / Fold change vs veh, LRRCC1 / RFU, ARID1A / Fold change vs veh, ARID1A / RFU, ZNF146 / Fold change vs veh, ZNF146 / RFU, ZNF330 / Fold change vs veh, ZNF330 / RFU, GPN3 / Fold change vs veh, GPN3 / RFU, C9orf123 / Fold change vs veh, C9orf123 / RFU, N4BP2L2 / Fold change vs veh, N4BP2L2 / RFU, ARFIP1 / Fold change vs veh, ARFIP1 / RFU, FAM179B / Fold change vs veh, FAM179B / RFU, BCL10 / Fold change vs veh, BCL10 / RFU, UHRF1BP1L / Fold change vs veh, UHRF1BP1L / RFU, BET1 / Fold change vs veh, BET1 / RFU, CNOT2 / Fold change vs veh, CNOT2 / RFU, ZNF268 / Fold change vs veh, ZNF268 / Fold change vs veh, ZNF507 / RFU, DGCR2 / Fold change vs veh, DGCR2 / RFU, WDSUB1 / Fold change vs veh, WDSUB1 / Fold change vs veh, HSP90B1 /// MIR3652 / RFU, ADSS / Fold change vs veh, ADSS / RFU, GK / Fold change vs veh, GK / RFU, ZNF148 / Fold change vs veh, ZNF148 / RFU, TAF9 / Fold change vs veh, TAF9 / RFU, SLC1A5 / Fold change vs veh, SLC1A5 / RFU, SLMO2 / Fold change vs veh, SLMO2 / RFU, ABCC4 / Fold change vs veh, ABCC4 / RFU, LOC101060439 /// RAP1B / Fold change vs veh, LOC101060439 /// RAP1B / RFU, RFX7 / Fold change vs veh, RFX7 / RFU, GTPBP10 / Fold change vs veh, GTPBP10 / RFU, CNEP1R1 / Fold change vs veh, CNEP1R1 / RFU, BIVM-ERCC5 /// ERCC5 / Fold change vs veh, BIVM-ERCC5 /// ERCC5 / RFU, ILF3 / Fold change vs veh, ILF3 / RFU 11762660_at / Fold change /veh 11762660_at / RFU VCAN (11757783_s_at) / Fold change /veh VCAN (11757783_s_at) / RFU DDX43 (11728927_at) / Fold change /veh DDX43 (11728927_at) / RFU KRT8 (11758188_x_at) / Fold change /veh KRT8 (11758188_x_at) / RFU NKD1 (11759106_at) / Fold change /veh NKD1 (11759106_at) / RFU SRD5A1 (11742802_a_at) / Fold change /veh SRD5A1 (11742802_a_at) / RFU TPSAB1 /// TPSB2 (11721975_s_at) / Fold change /veh TPSAB1 /// TPSB2 (11721975_s_at) / RFU GSTM3 (11746129_a_at) / Fold change /veh GSTM3 (11746129_a_at) / RFU IL23R (11737362_x_at) / Fold change /veh IL23R (11737362_x_at) / RFU TMEM51 (11727254_a_at) / Fold change /veh TMEM51 (11727254_a_at) / RFU PIWIL2 (11732686_x_at) / Fold change /veh PIWIL2 (11732686_x_at) / RFU ORM1 (11744905_x_at) / Fold change /veh ORM1 (11744905_x_at) / RFU CCDC152 (11743942_at) / Fold change /veh CCDC152 (11743942_at) / RFU ECM1 (11717891_a_at) / Fold change /veh ECM1 (11717891_a_at) / RFU IL23R (11748794_a_at) / Fold change /veh IL23R (11748794_a_at) / RFU TNFAIP8L3 (11732012_x_at) / Fold change /veh TNFAIP8L3 (11732012_x_at) / RFU MBOAT4 (11741988_at) / Fold change /veh MBOAT4 (11741988_at) / RFU 11764193_at / Fold change /veh 11764193_at / RFU TMEM53 (11763286_at) / Fold change /veh TMEM53 (11763286_at) / RFU MAGEB2 (11727129_at) / Fold change /veh MAGEB2 (11727129_at) / RFU TMEM200A (11744735_a_at) / Fold change /veh TMEM200A (11744735_a_at) / RFU CCDC152 (11751479_a_at) / Fold change /veh CCDC152 (11751479_a_at) / RFU FAM211A (11726209_a_at) / Fold change /veh FAM211A (11726209_a_at) / RFU RGS16 (11746705_a_at) / Fold change /veh RGS16 (11746705_a_at) / RFU VCAN (11755009_s_at) / Fold change /veh VCAN (11755009_s_at) / RFU RHOB (11743442_s_at) / Fold change /veh RHOB (11743442_s_at) / RFU RGS16 (11720943_a_at) / Fold change /veh RGS16 (11720943_a_at) / RFU RGS16 (11720944_at) / Fold change /veh RGS16 (11720944_at) / RFU, VPS4B / Fold change vs veh, VPS4B / RFU, CREB1 / Fold change vs veh, CREB1 / RFU, DNAJC13 / Fold change vs veh, DNAJC13 / RFU, GNAQ / Fold change vs veh, GNAQ / RFU, CDK5R1 / Fold change vs veh, CDK5R1 / RFU, ZRANB3 / Fold change vs veh, ZRANB3 / RFU, CUL4A / Fold change vs veh, CUL4A / RFU, CCNY / Fold change vs veh, CCNY / RFU, UFL1 / Fold change vs veh, UFL1 / RFU, COG3 / Fold change vs veh, COG3 / RFU, DIAPH2 / Fold change vs veh, DIAPH2 / RFU, SKA2 / Fold change vs veh, SKA2 / RFU, AFF3 / Fold change vs veh, AFF3 / RFU, LMF1 / Fold change vs veh, LMF1 / RFU, IPO11 / Fold change vs veh, IPO11 / RFU, DFFB / Fold change vs veh, DFFB / RFU, FOXP1 / Fold change vs veh, FOXP1 / RFU, CARD8 / Fold change vs veh, CARD8 / RFU, STRN3 / Fold change vs veh, STRN3 / RFU, ADK / Fold change vs veh, ADK / RFU, RASSF2 / Fold change vs veh, RASSF2 / RFU, WIPF1 / Fold change vs veh, WIPF1 / RFU, LARP1B / Fold change vs veh, LARP1B / RFU, RASA1 / Fold change vs veh, RASA1 / RFU, RB1 / Fold change vs veh, RB1 / RFU, PPFIA1 / Fold change vs veh, PPFIA1 / RFU, MAT2A / Fold change vs veh, MAT2A / RFU, CCT5 / Fold change vs veh, CCT5 / RFU, WDR92 / Fold change vs veh, WDR92 / RFU, CUX1 / Fold change vs veh, CUX1 / RFU, TTC7A / Fold change vs veh, TTC7A / RFU, TMEM135 / Fold change vs veh, TMEM135 / RFU, DEPTOR / Fold change vs veh, DEPTOR / RFU, CPM / Fold change vs veh, CPM / RFU, DNAJB6 / Fold change vs veh, DNAJB6 / RFU, CACNA2D3 / Fold change vs veh, CACNA2D3 / RFU, DTX4 / Fold change vs veh, DTX4 / RFU, TFCP2 / Fold change vs veh, TFCP2 / RFU, GMCL1 /// GMCL1P1 / Fold change vs veh, GMCL1 /// GMCL1P1 / RFU, AEBP2 / Fold change vs veh, AEBP2 / RFU, SNHG1 /// SNORD22 /// SNORD25 /// SNORD26 /// SNORD27 /// SNORD28 /// SNORD29 /// SNORD31 / Fold change vs veh, SNHG1 /// SNORD22 /// SNORD25 /// SNORD26 /// SNORD27 /// SNORD28 /// SNORD29 /// SNORD31 / Fold change (Aza/veh), C12orf56 (ProbeSet 11735607_a_at) / Fold change (ACY-1035/veh), C12orf56 (ProbeSet 11735607_a_at) / Fold change (Aza/veh), FGFR1OP (ProbeSet 11751329_s_at) / Fold change (ACY-1035/veh), FGFR1OP (ProbeSet 11751329_s_at) / Fold change (Aza/veh), VPS36 (ProbeSet 11739960_a_at) / Fold change (ACY-1035/veh), VPS36 (ProbeSet 11739960_a_at) / RFU SYPL1 (11715823_x_at) / Fold change /veh SYPL1 (11715823_x_at) / RFU IGFBP7 (11715501_s_at) / Fold change /veh IGFBP7 (11715501_s_at) / RFU REEP3 (11722064_at) / Fold change /veh REEP3 (11722064_at) / RFU IGLL1 (11728026_x_at) / Fold change /veh IGLL1 (11728026_x_at): dose or concentration left out as unconfirmed
# Conditions: MV-4-11 cells, 48 hours
structure (smiles),measurement,value
Nc1ccc(-c2cccs2)cc1NC(=O)c1ccc2c(c1)cc(C1CC1)n2CCN1CCOCC1 [ACY-1035],RFU SRD5A1 (11742802_a_at),49.09 RFU
